In ChEMBL document CHEMBL1201862, “PubChem BioAssay data set” (2004):
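Results reflect a 48-hour exposure of cells in 96-well plates to compound at five concentrations. GI50 = concentration required for 50% inhibition of growth.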 Calls of active or inactive are those of the source. Rule as the data show it: active = GI50 up to about 1.1 µM and inactive = higher.

Assays:
Assay in all cases: inhibition of tumour cell growth, NCI panel, 48 h
HOP-62 = system: HOP-62
IGROV-1 = system: IGROV-1
NCI-H226 = system: NCI-H226
SF-539 = system: SF-539
SK-MEL-2 = system: SK-MEL-2
SN12C = system: SN12C
EKVX = system: EKVX
CAKI-1 = system: CAKI-1
M14 = system: M14
OVCAR-8 = system: OVCAR-8
SF-295 = system: SF-295
SF-268 = system: SF-268
TK-10 = system: TK-10
Malme-3M = system: Malme-3M
HCT-116 = system: HCT-116
COLO 205 = system: COLO 205
LOX IMVI = system: LOX IMVI

Measured: GI50

CN(C)c1nc(N(C)C)sc(=O)n1
inactive: HOP-62 > 100 µM | IGROV-1 > 100 µM | NCI-H226 > 100 µM | SF-539 > 100 µM | SK-MEL-2 > 100 µM | SN12C > 100 µM | EKVX > 100 µM | CAKI-1 > 100 µM | M14 > 100 µM | OVCAR-8 > 100 µM | SF-295 > 100 µM | SF-268 > 100 µM | TK-10 > 100 µM

CC(=O)C1=C(C)NC2C=CC=CN12 (stereo unspecified)
inactive: HOP-62 > 100 µM | IGROV-1 > 100 µM | Malme-3M > 100 µM | NCI-H226 > 100 µM | SF-539 > 100 µM | SK-MEL-2 > 100 µM | SN12C > 100 µM | HCT-116 > 100 µM | COLO 205 > 100 µM | EKVX > 100 µM | CAKI-1 > 100 µM | M14 > 100 µM | OVCAR-8 > 100 µM | SF-295 > 100 µM | SF-268 > 100 µM | LOX IMVI > 100 µM | TK-10 > 100 µM

CCS/C(=N\c1ccccc1)SC
inactive: HOP-62 > 100 µM | IGROV-1 > 100 µM | Malme-3M > 100 µM | NCI-H226 > 100 µM | SF-539 > 100 µM | SK-MEL-2 > 100 µM | SN12C > 100 µM | HCT-116 > 100 µM | COLO 205 > 100 µM | EKVX > 100 µM | CAKI-1 > 100 µM | M14 > 100 µM | OVCAR-8 > 100 µM | SF-295 > 100 µM | SF-268 > 100 µM | LOX IMVI > 100 µM | TK-10 > 100 µM

O=C(OCc1nc2ccc(Br)cc2c(=O)n1-c1ccccc1)c1ccccc1O
inactive: HOP-62 > 100 µM | IGROV-1 > 100 µM | Malme-3M > 100 µM | NCI-H226 57.5 µM | SF-539 > 100 µM | SK-MEL-2 90.4 µM | SN12C > 100 µM | HCT-116 > 100 µM | COLO 205 > 100 µM | EKVX 66.1 µM | CAKI-1 39.8 µM | M14 > 100 µM | OVCAR-8 > 100 µM | SF-295 > 100 µM | SF-268 78.9 µM | LOX IMVI > 100 µM | TK-10 > 100 µM

CCc1cccc(C(C)C)c1C1C(=O)C(=O)N(c2nc3ccccc3s2)C(=O)C1=O
inactive: HOP-62 > 100 µM | IGROV-1 > 100 µM | Malme-3M > 100 µM | NCI-H226 > 100 µM | SF-539 > 100 µM | SK-MEL-2 > 100 µM | SN12C > 100 µM | HCT-116 > 100 µM | COLO 205 > 100 µM | EKVX > 100 µM | CAKI-1 > 100 µM | M14 > 100 µM | SF-295 > 100 µM | SF-268 > 100 µM | LOX IMVI > 100 µM | TK-10 > 100 µM

O=C(NN1C(=O)C(Cl)C1c1ccc(O)cc1)c1ccccc1O (stereo unspecified)
inactive: IGROV-1 14 µM | Malme-3M 18.6 µM | NCI-H226 16 µM | SF-539 23.4 µM | SK-MEL-2 19.9 µM | SN12C 23 µM | HCT-116 13.7 µM | M14 22.2 µM | OVCAR-8 13.5 µM | SF-295 16.6 µM | SF-268 18.8 µM | LOX IMVI 16.7 µM | TK-10 24.7 µM

CCCN(CCC)C1=Nc2ccccc2-n2cnnc2C1
inactive: HOP-62 > 100 µM | IGROV-1 > 100 µM | Malme-3M > 100 µM | NCI-H226 > 100 µM | SF-539 > 100 µM | SK-MEL-2 > 100 µM | SN12C > 100 µM | HCT-116 > 100 µM | COLO 205 > 100 µM | EKVX > 100 µM | M14 > 100 µM | OVCAR-8 > 100 µM | SF-295 > 100 µM | SF-268 > 100 µM | LOX IMVI > 100 µM | TK-10 > 100 µM

COc1cccc2ccc(C(=O)c3ccccc3)nc12
inactive: HOP-62 > 100 µM | IGROV-1 > 100 µM | Malme-3M > 100 µM | NCI-H226 > 100 µM | SF-539 > 100 µM | SK-MEL-2 > 100 µM | SN12C > 100 µM | HCT-116 > 100 µM | COLO 205 > 100 µM | EKVX > 100 µM | CAKI-1 > 100 µM | M14 > 100 µM | OVCAR-8 > 100 µM | SF-295 > 100 µM | SF-268 > 100 µM | LOX IMVI > 100 µM | TK-10 > 100 µM

COc1ccc(CC#C/C=C/C(=O)NCC(C)C)cc1
inactive: IGROV-1 > 100 µM | Malme-3M > 100 µM | NCI-H226 > 100 µM | SF-539 > 100 µM | SK-MEL-2 > 100 µM | SN12C > 100 µM | HCT-116 > 100 µM | COLO 205 > 100 µM | EKVX > 100 µM | M14 > 100 µM | OVCAR-8 > 100 µM | SF-295 > 100 µM | SF-268 > 100 µM | LOX IMVI > 100 µM | TK-10 > 100 µM

CCCC(C)NC1=C(NC(C)=O)C(=O)c2ccccc2C1=O (stereo unspecified)
inactive: HOP-62 > 100 µM | IGROV-1 > 100 µM | Malme-3M 36.1 µM | NCI-H226 > 100 µM | SF-539 > 100 µM | SK-MEL-2 > 100 µM | SN12C > 100 µM | HCT-116 > 100 µM | COLO 205 > 100 µM | EKVX > 100 µM | M14 > 100 µM | OVCAR-8 > 100 µM | SF-295 > 100 µM | SF-268 > 100 µM | LOX IMVI > 100 µM | TK-10 > 100 µM

O=C1c2ccccc2C(=O)N1C/C=N/NS(=O)(=O)c1ccc2ccccc2c1
inactive: HOP-62 > 100 µM | IGROV-1 > 100 µM | Malme-3M > 100 µM | NCI-H226 > 100 µM | SF-539 > 100 µM | SK-MEL-2 > 100 µM | SN12C > 100 µM | HCT-116 > 100 µM | COLO 205 > 100 µM | EKVX > 100 µM | CAKI-1 > 100 µM | M14 > 100 µM | OVCAR-8 > 100 µM | SF-295 > 100 µM | TK-10 > 100 µM

COc1ccc(C(c2c(O)c3ccccc3n(-c3ccccc3)c2=O)c2c(O)c3ccccc3n(-c3ccccc3)c2=O)cc1
inactive: HOP-62 > 100 µM | Malme-3M > 100 µM | NCI-H226 > 100 µM | SF-539 > 100 µM | SK-MEL-2 > 100 µM | SN12C > 100 µM | HCT-116 > 100 µM | COLO 205 > 100 µM | EKVX > 100 µM | CAKI-1 > 100 µM | SF-268 > 100 µM | LOX IMVI > 100 µM | TK-10 > 100 µM

CC(=O)OC1COC(N2C(=O)C(=O)c3ccccc32)C(OC(C)=O)C1OC(C)=O (stereo unspecified)
inactive: HOP-62 > 100 µM | IGROV-1 > 100 µM | Malme-3M > 100 µM | NCI-H226 > 100 µM | SF-539 > 100 µM | SK-MEL-2 > 100 µM | SN12C > 100 µM | COLO 205 > 100 µM | EKVX > 100 µM | CAKI-1 > 100 µM | M14 > 100 µM | OVCAR-8 > 100 µM | SF-295 > 100 µM | SF-268 > 100 µM | LOX IMVI > 100 µM | TK-10 > 100 µM
